In brackets after ≈: the same amount, converted by molar mass. Like-named read-outs stand apart in the source and are kept apart here.
Key:
AHR = target: T1, AHR (Homo sapiens, UniProt P35869); test: DRE-Luciferase Reporter Assay (HepG2 AhR-Lucia reporter cells); type: cell-based; conditions: AHR activating ligand at its EC50, luciferase read-out, read-out: HEPG2 Luc IC50
T1 construct: other cell line with a DRE-luciferase reporter stably transfected; endogenous in cells; host or cells: Human HepG2 liver carcinoma AhR-Lucia reporter cells
T1 sequence (P35869 11-848): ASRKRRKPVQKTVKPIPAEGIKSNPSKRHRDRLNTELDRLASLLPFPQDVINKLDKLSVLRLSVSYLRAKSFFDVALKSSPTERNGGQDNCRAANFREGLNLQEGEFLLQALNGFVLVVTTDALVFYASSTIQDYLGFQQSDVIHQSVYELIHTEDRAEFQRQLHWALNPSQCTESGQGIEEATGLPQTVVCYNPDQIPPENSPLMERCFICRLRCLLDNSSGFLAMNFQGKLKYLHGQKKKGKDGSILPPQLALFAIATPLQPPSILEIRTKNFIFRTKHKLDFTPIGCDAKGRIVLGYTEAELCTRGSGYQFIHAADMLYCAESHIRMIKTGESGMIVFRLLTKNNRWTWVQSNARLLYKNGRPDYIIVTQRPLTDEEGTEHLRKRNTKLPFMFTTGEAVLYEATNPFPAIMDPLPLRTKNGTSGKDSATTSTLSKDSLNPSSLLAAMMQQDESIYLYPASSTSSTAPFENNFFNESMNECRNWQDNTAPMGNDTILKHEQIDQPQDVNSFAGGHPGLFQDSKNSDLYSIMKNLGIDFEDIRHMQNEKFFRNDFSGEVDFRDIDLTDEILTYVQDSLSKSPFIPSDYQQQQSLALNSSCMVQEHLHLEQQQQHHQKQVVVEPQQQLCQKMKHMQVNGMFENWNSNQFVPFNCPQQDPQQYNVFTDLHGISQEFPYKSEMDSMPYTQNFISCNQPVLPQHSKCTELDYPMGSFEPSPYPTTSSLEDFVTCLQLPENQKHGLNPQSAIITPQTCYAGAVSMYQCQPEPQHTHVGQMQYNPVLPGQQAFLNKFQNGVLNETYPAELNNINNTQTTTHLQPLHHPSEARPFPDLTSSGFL
Description: Example 27: DRE-Luciferase Reporter Assay
AHR binds to Dioxin Responsive Elements (DRE) upstream of genes that it activates. One measure of AHR activity is activation of a reporter gene, such as luciferase, downstream of one or multiple DRE elements. Luciferase activity will reflect activation and inhibition of AHR in the cells expressing his reporter. 20000 Human HepG2 liver carcinoma—AhR-Lucia reporter cells or Human HT29 colon adenocarcinoma—AhR reporter cells or other cell line with a DRE-luciferase reporter stably transfected were plated in Eagle's Minimal Essential Medium, 10% heat-inactivated FBS, 1×non-essential amino acids Pen-Strep (10,000 U/mL) and Normocin (100 ug/mL) in plates (96-well, 384-well or other plates) and incubated overnight at 37° C. in a CO2 incubator and treated with and without AhR antagonists at a log dilution starting at 100 uM.
After 1 hr that cells were plated an AHR activating ligand, such as TCDD, kynurenine, ITE (2-(1H-indole-3-ylcarbonyl)-4-thiazolecarboxylic methyl ester), VAF347, BNF (beta-naphthoflavone), FICZ (6-formylindolo(3,2-b) carbazole) or other AHR ligands at their specific EC50 concentration, were added to the cells with or without AHR antagonist.
Cells were incubated for 24 or 48 hours or another time point and then, supernatant was analyzed for determination of luciferase activity as a read-out of the AHR activation or inhibition. Luciferase was measured with the commercial kit QUANTI-Luc™ assay solution kit from Invivogen following the manufacturer's instructions.
The level of luciferase with only agonist ligand added was the maximum signal while the luciferase with […] was the minimum signal. IC50 values were determined as the concentration which inhibits half of the luciferase activity. “A” indicates an IC50 value less than 100 nM, “B” indicates an IC50 between 100 and 500 nM, “C” indicates an IC50 above 500 nM.

[1] = Solubility Determination Assay (PBS pH 1.6 and pH 7.4); type: physicochemical; conditions: PBS buffer, aqueous buffer, kinetic from dmso stock, 2 hours shaking
Protocol: Example 31: Solubility Determination Assay
The stock solutions of test compounds and control compound progesterone were prepared in DMSO at the concentrations of 10 mM. 15 μL of stock solution (10 mM) of each sample was placed in order into their proper 96-well rack. 485 μL of PBS pH 1.6 and pH 7.4 were added into each vial of the cap-less Solubility Sample plate. The assay was performed in singlet. One stir stick was added to each vial and then the vial was sealed using a molded PTFE/Silicone plug. The solubility sample plates were then transferred to the Eppendorf Thermomixer Comfort plate shaker and shaken at 25° C. at 1100 rpm for 2 hours. After completion of the 2 hours, plugs were removed and the stir sticks were removed using a big magnet. The samples from the Solubility Sample plate were transferred into the filter plate. Using the Vacuum Manifold, all the samples were filtered. An aliquot of 5 μL was taken from the filtrate followed by addition of 495 μL of a mixture of H2O and acetonitrile containing internal standard (1:1). A certain proportion of ultrapure water was used to dilute the diluent according to the peak shape. The dilution factor was changed according to the solubility values and the LC-MS signal response.
From the 10 mM DMSO STD plate, 6 μL was transferred into the remaining empty plate, and then 194 μL of DMSO were added to that plate to have a STD concentration of 300 μM. From the 300 μM DMSO STD plate, 5 μL were transferred into the remaining empty plate, and then 495 μL of a mixture of H2O and acetonitrile containing internal standard (1:1) were added to that plate to have a final STD concentration of 3 μM. A certain proportion of ultrapure water was used to dilute the diluent according to the peak shape. The concentrations of the standard samples were changed according to the LC-MS signal response.
The plate was placed into the well plate autosampler. The samples were evaluated by LC-MS/MS analysis.
All calculations were carried out using Microsoft Excel.
The filtrate was analyzed and quantified against a standard of known concentration using LC coupled with mass spectral peak identification and quantitation. Solubility values of the test compound and control compound were calculated as follows: […]
Any value of the compounds that was not within the specified limits was rejected and the experiment was repeated.
“+++” indicates a solubility value equal to or greater than […] “++” indicates a solubility value between 0.1 and 1 μM and “+” indicates a solubility value less than 0.1 μM.

[2] = PBS pH 1.6, 25° C., read-out: Aq. Solubility at pH = 1.6
[3] = PBS pH 7.4, 25° C., read-out: Aq. Solubility at pH = 7.4

Structure (SMILES)	IC50 (AHR) [nM]	solubility at 2 h [1, 2] [µM]	solubility at 2 h [1, 3] [µM]
Cc1ccccc1-c1ccc2nc(NC(=O)c3ccccn3)sc2n1 [Product 8, N-(5-(o-tolyl)thiazolo[5,4-b]pyridin-2-yl)picolinamide]	< 100	0.1 to 1 (≈ 0.0346 to 0.346 µg/mL)	< 0.1
COc1ccccc1-c1ccc2nc(NC(=O)c3ccccn3)sc2n1 [Product 12, N-(5-(2-methoxyphenyl)thiazolo[5,4-b]pyridin-2-yl)picolinamide]	< 100	0.1 to 1 (≈ 0.0362 to 0.362 µg/mL)	0.1 to 1 (≈ 0.0362 to 0.362 µg/mL)
Cc1ccccc1-c1ccc2nc(NC(=O)c3ccnn3C)sc2n1 [Product 15, 1-Methyl-N-(5-(o-tolyl)thiazolo[5,4-b]pyridin-2-yl)-1H-pyrazole-5-carboxamide]	< 100	0.1 to 1 (≈ 0.0349 to 0.349 µg/mL)	≥ 1
CN(C)c1ccccc1-c1ccc2nc(NC(=O)c3ccnn3C)sc2n1 [Product 18, N-(5-(2-(dimethylamino)phenyl)thiazolo[5,4-b]pyridin-2-yl)-1-methyl-1H-pyrazole-5-carboxamide]	< 100	≥ 1	≥ 1
COc1ccccc1-c1ccc2nc(NC(=O)c3ccnn3C)sc2n1 [Product 25, N-(5-(2-methoxyphenyl)thiazolo[5,4-b]pyridin-2-yl)-1-methyl-1H-pyrazole-5-carboxamide]	< 100	≥ 1	≥ 1
Cc1ccccc1-c1ccc2nc(NC(=O)N3CCOCC3)sc2n1 [Product 39, N-(5-(o-tolyl)thiazolo[5,4-b]pyridin-2-yl)morpholine-4-carboxamide]	< 100	≥ 1	≥ 1
Cn1ncnc1C(=O)Nc1cnc2cc(-c3cc(F)ccc3C(F)F)[nH]c2c1 [Product 47]	< 100	≥ 1	0.1 to 1 (≈ 0.0386 to 0.386 µg/mL)
